In patent US9000174B2, “4-phenylsulfonamidopiperidines as calcium channel blockers” (Purdue Pharma L.P., priority 2004, dated 2015):

What was measured:
[1] = target: T1, L-type calcium channel (LTCC) (Rattus norvegicus, UniProt P22002); experiment: FLIPR calcium mobilization (and/or electrophysiological) assay for L-type calcium channel; type: cell-based; settings: calcium mobilization and/or electrophysiological in vitro assay; differentiated A7r5 cells, 90 mM KCl
T1 construct: differentiated A7r5 cells were trypsinized, then seeded on tissue culture treated 96-well clear-bottom black plates; endogenous in cells; host or cells: differentiated A7r5 cells (ATCC)
Description: A7r5 (ATCC) cells were maintained and routinely cultured in A7r5 growth medium consisting of Dulbecco's Modified Eagles Medium containing 10% FBS, 100 U/mL penicillin, 100 μg/mL streptomycin, 4 mM L-glutamine, and 0.15% sodium bicarbonate. 80-90% confluent flasks of cells were differentiated using the following differentiation medium: A7r5 Growth Medium plus 1 mM dibutyryl cyclic AMP (Sigma). Cells were differentiated for 8 days by replacing differentiation medium every 2-3 days.
One day prior to performing this assay, differentiated A7r5 cells were trypsinized, then seeded on tissue culture treated 96-well clear-bottom black plates (Becton Dickinson, Franklin Lakes, N.J.) at a dilution of 1:1 from a confluent T150 cm^2 flask. On the day of the assay, the plates were washed with A7r5 wash buffer (127 mM NaCl, 2 mM MgCl2, 700 μM NaH2PO4, 5 mM CaCl2, 5 mM NaHCO3, 8 mM HEPES, 10 mM glucose, pH 7.4), then loaded with 0.1 mL of A7r5 wash buffer containing Fluo-4 (3 μM final concentration, Molecular Probes, Eugene, Oreg.). After 1 hour, the cells were washed with 0.1 mL A7r5 wash buffer and resuspended in 0.05 mL A7r5 assay buffer that was composed of A7r5 wash buffer plus 50 μM valinomycin (Sigma). Plates were then transferred to a FLIPR^96 for assay. The FLIPR measured basal Fluo-4 fluorescence for 15 seconds, then added 0.05 mL of each compound tested diluted in A7r5 assay buffer at final concentrations ranging from about 846 pM to about 17 μM. Fluo-4 fluorescence was then measured for 5 minutes. 0.1 mL KCl agonist dissolved in A7r5 assay buffer was then added to the cells to produce a final concentration of 90 mM KCl, and fluorescence was measured for another 45 seconds. Data were collected over the entire time course and analyzed using Excel, Graph Pad Prism, or Activity Base software.

[2] = target: T2, N-type calcium channel (NTCC) (Homo sapiens, UniProt Q00975); experiment: FLIPR calcium mobilization (and/or electrophysiological) assay for N-type calcium channel; type: cell-based; settings: calcium mobilization and/or electrophysiological in vitro assay; differentiated IMR32 cells, 90 mM KCl, 5 μM nitrendipine
T2 construct: endogenous in cells; host or cells: differentiated IMR32 cells (ATCC)
T2 sequence (Q00975 whole entry): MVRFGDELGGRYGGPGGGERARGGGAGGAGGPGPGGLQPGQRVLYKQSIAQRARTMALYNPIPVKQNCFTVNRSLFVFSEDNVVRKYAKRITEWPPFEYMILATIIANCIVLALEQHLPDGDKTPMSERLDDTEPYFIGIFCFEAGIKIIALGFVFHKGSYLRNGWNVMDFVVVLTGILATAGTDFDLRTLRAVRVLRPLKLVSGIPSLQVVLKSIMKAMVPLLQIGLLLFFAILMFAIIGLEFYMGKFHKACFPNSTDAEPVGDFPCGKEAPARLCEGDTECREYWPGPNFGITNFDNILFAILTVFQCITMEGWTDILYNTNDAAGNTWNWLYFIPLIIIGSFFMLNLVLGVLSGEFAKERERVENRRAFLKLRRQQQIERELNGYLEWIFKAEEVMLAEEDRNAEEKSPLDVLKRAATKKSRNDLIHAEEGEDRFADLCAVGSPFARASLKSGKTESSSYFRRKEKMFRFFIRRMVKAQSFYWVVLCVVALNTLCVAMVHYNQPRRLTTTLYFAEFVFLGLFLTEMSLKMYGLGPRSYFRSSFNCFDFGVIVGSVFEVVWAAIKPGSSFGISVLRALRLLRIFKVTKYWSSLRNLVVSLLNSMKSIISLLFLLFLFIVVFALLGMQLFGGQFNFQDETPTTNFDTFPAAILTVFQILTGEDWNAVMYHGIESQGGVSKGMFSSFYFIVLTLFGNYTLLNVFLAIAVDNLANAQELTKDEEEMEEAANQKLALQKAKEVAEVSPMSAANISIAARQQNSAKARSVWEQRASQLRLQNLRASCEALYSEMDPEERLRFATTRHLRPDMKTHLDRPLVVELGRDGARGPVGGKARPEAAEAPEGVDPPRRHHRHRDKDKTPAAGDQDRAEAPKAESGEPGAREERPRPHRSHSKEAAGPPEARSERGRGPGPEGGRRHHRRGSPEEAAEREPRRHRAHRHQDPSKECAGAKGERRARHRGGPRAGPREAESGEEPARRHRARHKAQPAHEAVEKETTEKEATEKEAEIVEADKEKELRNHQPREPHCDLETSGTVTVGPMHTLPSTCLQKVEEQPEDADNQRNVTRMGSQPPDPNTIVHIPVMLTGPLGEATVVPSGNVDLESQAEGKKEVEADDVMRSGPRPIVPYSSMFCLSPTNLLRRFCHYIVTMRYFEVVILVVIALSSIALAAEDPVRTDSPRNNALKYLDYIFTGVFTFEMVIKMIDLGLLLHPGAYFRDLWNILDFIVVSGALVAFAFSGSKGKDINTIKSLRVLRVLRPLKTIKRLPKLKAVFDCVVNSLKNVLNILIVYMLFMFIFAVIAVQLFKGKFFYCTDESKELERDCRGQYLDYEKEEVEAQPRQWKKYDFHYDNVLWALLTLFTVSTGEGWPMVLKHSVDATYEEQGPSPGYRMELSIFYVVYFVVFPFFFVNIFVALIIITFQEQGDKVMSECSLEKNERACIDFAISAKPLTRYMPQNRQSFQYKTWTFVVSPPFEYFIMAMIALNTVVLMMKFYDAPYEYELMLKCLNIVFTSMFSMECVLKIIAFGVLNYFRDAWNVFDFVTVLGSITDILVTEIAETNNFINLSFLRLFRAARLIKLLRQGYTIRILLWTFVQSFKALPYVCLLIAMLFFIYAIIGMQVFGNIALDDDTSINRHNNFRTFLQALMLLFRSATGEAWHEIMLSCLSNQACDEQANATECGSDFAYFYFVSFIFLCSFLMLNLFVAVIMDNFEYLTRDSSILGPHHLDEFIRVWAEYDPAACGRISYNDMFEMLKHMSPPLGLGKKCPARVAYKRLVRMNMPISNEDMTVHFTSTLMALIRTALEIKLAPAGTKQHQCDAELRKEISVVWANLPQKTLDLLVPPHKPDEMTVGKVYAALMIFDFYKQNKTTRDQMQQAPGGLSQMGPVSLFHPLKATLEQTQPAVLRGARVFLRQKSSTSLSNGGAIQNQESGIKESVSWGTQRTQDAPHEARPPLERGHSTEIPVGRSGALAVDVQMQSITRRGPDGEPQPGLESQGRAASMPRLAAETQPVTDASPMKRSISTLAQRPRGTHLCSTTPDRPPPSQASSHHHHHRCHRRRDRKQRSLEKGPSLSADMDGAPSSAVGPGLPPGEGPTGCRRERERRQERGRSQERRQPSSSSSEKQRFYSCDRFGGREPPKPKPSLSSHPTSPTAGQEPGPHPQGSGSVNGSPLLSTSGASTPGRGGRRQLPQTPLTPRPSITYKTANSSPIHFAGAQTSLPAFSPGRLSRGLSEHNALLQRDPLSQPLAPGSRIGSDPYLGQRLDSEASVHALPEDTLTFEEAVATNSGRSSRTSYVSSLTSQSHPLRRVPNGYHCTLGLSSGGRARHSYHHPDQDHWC
T2 sequence (P54284 whole entry partner): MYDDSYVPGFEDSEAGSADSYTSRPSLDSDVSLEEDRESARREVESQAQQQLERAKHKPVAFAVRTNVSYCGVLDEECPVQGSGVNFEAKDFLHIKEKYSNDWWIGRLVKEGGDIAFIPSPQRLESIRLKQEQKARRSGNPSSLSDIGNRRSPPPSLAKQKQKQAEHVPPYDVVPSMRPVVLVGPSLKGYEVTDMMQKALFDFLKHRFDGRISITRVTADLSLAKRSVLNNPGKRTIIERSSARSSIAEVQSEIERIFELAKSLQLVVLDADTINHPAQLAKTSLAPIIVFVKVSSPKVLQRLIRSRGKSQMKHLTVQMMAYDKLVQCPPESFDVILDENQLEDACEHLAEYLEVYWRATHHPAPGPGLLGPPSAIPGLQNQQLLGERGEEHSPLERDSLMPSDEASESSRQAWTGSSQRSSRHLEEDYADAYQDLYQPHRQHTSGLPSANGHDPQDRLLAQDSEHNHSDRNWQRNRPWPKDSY
T2 sequence (P54289 25-956 partner limits assumed): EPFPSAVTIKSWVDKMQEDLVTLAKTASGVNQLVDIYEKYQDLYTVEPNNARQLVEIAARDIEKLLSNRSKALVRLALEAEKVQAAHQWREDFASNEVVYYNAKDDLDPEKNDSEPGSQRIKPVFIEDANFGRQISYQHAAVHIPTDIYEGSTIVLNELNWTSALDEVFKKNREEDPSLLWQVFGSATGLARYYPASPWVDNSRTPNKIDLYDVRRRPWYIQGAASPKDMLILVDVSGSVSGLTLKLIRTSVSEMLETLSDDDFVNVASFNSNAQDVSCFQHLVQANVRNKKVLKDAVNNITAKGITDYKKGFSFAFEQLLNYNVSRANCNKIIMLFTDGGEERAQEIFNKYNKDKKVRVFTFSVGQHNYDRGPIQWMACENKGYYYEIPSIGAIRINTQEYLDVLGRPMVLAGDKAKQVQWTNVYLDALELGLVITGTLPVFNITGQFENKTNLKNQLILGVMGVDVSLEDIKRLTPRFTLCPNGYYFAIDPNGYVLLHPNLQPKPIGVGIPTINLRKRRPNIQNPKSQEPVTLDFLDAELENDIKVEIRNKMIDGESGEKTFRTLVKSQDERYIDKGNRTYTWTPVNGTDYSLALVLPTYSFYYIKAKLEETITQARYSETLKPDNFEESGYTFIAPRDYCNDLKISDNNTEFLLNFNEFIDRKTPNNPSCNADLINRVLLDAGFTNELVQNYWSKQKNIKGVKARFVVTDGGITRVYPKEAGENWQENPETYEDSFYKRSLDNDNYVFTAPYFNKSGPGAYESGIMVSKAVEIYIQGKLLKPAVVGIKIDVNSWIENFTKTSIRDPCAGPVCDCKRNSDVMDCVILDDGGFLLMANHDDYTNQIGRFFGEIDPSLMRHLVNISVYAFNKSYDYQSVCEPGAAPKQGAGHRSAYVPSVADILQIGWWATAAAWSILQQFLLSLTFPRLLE
T2 sequence (P54289 957-1103 partner limits assumed): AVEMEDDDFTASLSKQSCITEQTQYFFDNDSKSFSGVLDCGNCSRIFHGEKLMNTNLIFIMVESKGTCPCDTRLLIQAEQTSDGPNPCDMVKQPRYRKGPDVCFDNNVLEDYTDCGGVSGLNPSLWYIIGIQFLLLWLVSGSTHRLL
Description: Unless noted otherwise, cell culture reagents were purchased from Life Technologies of Rockville, Md. IMR32 cells (American Type Culture Collection, ATCC, Manassas, Va.) were routinely cultured in growth medium consisting of minimum essential medium containing 10% fetal bovine serum (FBS, Hyclone, Logan, Utah), 100 U/mL penicillin, 100 μg/mL streptomycin, 2 mM L-glutamine, 1 mM sodium pyruvate, and 1×MEM non-essential amino acids. 80-90% confluent flasks of cells were differentiated using the following differentiation medium: Growth medium plus 1 mM dibutyryl cyclic AMP (Sigma, St. Louis, Mo.), and 2.5 μM bromodeoxyuridine (Sigma). Cells were differentiated for 8 days by replacing differentiation medium every 2-3 days.
One day prior to performing this assay, differentiated IMR32 cells were treated with 1× CellStripper, and seeded on poly-D-lysine-coated 96-well clear-bottom black plates (Becton Dickinson, Franklin Lakes, N.J.) at 200,000 cells/well. On the day of the assay, the cell plates were washed with IMR32 buffer (127 mM NaCl, 1 mM KCl, 2 mM MgCl2, 700 μM NaH2PO4, 5 mM CaCl2, 5 mM NaHCO3, 8 mM HEPES, 10 mM glucose, pH 7.4), then pre-stimulated with KCl and loaded as follows: 0.05 mL of IMR32 buffer, 0.05 mL of each compound tested diluted in IMR32 buffer containing 20 μM nitrendipine (Sigma), and 0.1 mL KCl dissolved in IMR32 buffer, plus Fluo-4 were added (3 μM final concentration, Molecular Probes, Eugene, Oreg.). Final test compound concentrations ranged from about 846 pM to about 17 μM, final nitrendipine concentration was 5 μM, and final KCl concentration was 90 mM. After 1 hour, the cells were washed twice with 0.05 mL of each compound tested in nitrendipine-containing IMR32 buffer (no KCl or Fluo-4), and then replaced with 0.1 mL of each compound tested in nitrendipine-containing IMR32 buffer. Plates were then transferred to a Fluorimetric Imaging Plate Reader (FLIPR^96, Molecular Devices, Inc., Sunnyvale, Calif.) for assay. The FLIPR measured basal Fluo-4 fluorescence for 315 seconds (i.e., 5 minutes and 15 seconds), then added 0.1 mL KCl agonist dissolved in IMR32 buffer and measured fluorescence for another 45 seconds. Final test compound concentrations on the cells after FLIPR read ranged from about 846 pM to about 17 μM, final nitrendipine concentration was 5 μM, and final KCl concentration was 90 mM. Data were collected over the entire time course and analyzed using Excel, Graph Pad Prism (version 3.02, Graph Pad, San Diego, Calif.), or Activity Base (version 5.1, IDBS, Parsippany, N.J.) software.
N-type calcium channel expressing HEK-293 cells were created in two stages. Stage 1 was created as follows. The rat α1b, and β3 cDNA expression constructs (2.5 μg each) were co-transfected into human embryonic kidney (HEK-293) cells by Lipofectamine Plus reagent (Invitrogen), as per manufacturer's instructions. 24 hours later, cells were split in limiting dilution into multiple 96-well plates in selection media containing 20 μg/mL blasticidin and 500 μg/mL geneticin, and incubated for 3 weeks at 37° C., 5% CO2, 95% humidity. Plates containing ≦1 clone per well were cultured until wells positive for single clones were confluent. Individual clones were then arrayed into columns of a destination 96-well plate, and partly split into 6-well plates for culture maintenance. Array plates were washed once with IMR32 buffer and cells loaded for 1 hour with 0.1 mL of IMR32 buffer containing Fluo-4 (3 μM final concentration, Molecular Probes). Then they were washed twice with 0.1 mL of IMR32 buffer, and replaced with 0.1 mL IMR32 buffer. Plates were then transferred to a FLIPR^96 for assay. The FLIPR measured basal Fluo-4 fluorescence for 315 seconds, then added 0.1 mL KCl agonist dissolved in IMR32 buffer and measured fluorescence for another 45 seconds. Final KCl concentration was 90 mM. Data were collected over the entire time course and analyzed using Excel, Graph Pad Prism, or Activity Base software. […]

SMILES	IC50 [1]	IC50 [2]
O=S(=O)(c1cccc(C(F)(F)F)c1)N(C1CC1)C1CCN(CCCC(c2ccc(F)cc2)c2ccc(F)cc2)CC1 [N-Cyclopropyl-N-{1-[4,4-bis(4-fluorophenyl)butyl]piperidin-4-yl}-3-trifluoromethylbenzenesulfonamide]	3.78 µM	0.11 µM
CC(C)C[C@H](N)C(=O)N1CCC(N(C2CC2)S(=O)(=O)c2ccccc2)CC1 [(2S) N-[1-(2-amino-4-methylpentanoyl)piperidin-4-yl]-N-cyclopropyl-benzenesulfonamide]	10 to 20 µM	4.28 µM
NC(Cc1ccc(F)cc1)C(=O)N1CCC(N(C2CC2)S(=O)(=O)c2cccc(C(F)(F)F)c2)CC1 (stereo not drawn) [N-{1-[2-Amino-3-(4-fluorophenyl)propionyl]piperidin-4-yl}-N-cyclopropyl-3-trifluoromethylbenzenesulfonamide]	8.6 µM	0.18 µM
